According to patent publication US6737383B1, “Herbicidal oxadiazolidines” (priority 1999, dated 2004):

What was measured:
bedstraw = experiment: Test B pre/postemergence bedstraw; assay type: in vivo, Galium aparine; conditions: Preemergence
How it was run: (§1)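 Herbicidal effect was estimated by eye on a ten-point control scale after plants spent twelve to sixteen days in a greenhouse following soil or foliar treatment. Foliar sprays targeted plants at one to four leaves; all doses were formulated in a non-phytotoxic solvent with surfactant.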

blackgrass [1] = experiment: Test B pre/postemergence blackgrass; assay type: in vivo, Alopecurus myosuroides
How it was run: as §1

surinam grass = experiment: Test B pre/postemergence surinam grass; assay type: in vivo, Brachiaria decumbens
How it was run: as §1

smallflower flatsedge = experiment: Test B flood test smallflower flatsedge; assay type: in vivo, Cyperus difformis; conditions: Pre-emergence
How it was run: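 Read-out is a visual response score from 0 (no effect) to 10 (complete control), assigned by comparison with untreated controls. Treatment was applied at the 2-leaf stage, and plants stayed in the greenhouse for twelve to sixteen days before scoring.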

winter wheat [2] = experiment: Test E winter wheat; assay type: in vivo, Triticum aestivum; conditions: Postemergence, 0 to 100 scale, 0 is no effect, 100 is complete control
How it was run: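 Postemergence: 60:40 sandy loam/greenhouse potting mix, 1- to 4-leaf stage. Formulation: solvent plus surfactant. Assessment: visual comparison with untreated controls at ~21–28 days.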

blackgrass [3] = experiment: Test E blackgrass; assay type: in vivo, Alopecurus myosuroides; conditions: Preemergence
green foxtail = experiment: Test E green foxtail; assay type: in vivo, Setaria viridis; conditions: Preemergence
Italian ryegrass = experiment: Test E Italian ryegrass; assay type: in vivo, Lolium multiflorum; conditions: Preemergence
winter wheat [4] = experiment: Test E winter wheat; assay type: in vivo, Triticum aestivum; conditions: Preemergence
wild oat = experiment: Test E wild oat; assay type: in vivo, Avena fatua; conditions: Preemergence
winter barley = experiment: Test E winter barley; assay type: in vivo, Hordeum vulgare; conditions: Preemergence
[5] = Postemergence, Rate 125 g/ha, scale 0 to 10, 0 is no effect, 10 is complete control
[6] = Preemergence, Rate 62 g/ha, scale 0 to 10 (0 no effect, 10 complete control)
[7] = Preemergence, Rate 250 g/ha, scale of 0 to 10 where 0 is no effect and 10 is complete control
[8] = Preemergence, Rate 500 g/ha, scale of 0 to 10 where 0 is no effect and 10 is complete control
[9] = Rate 62 g/ha, Postemergence, scale of 0 to 10 where 0 is no effect and 10 is complete control
[10] = Rate 250 g/ha, Postemergence, scale of 0 to 10 where 0 is no effect and 10 is complete control
[11] = Rate 500 g/ha, Postemergence, scale 0 to 10, 0 no effect, 10 complete control
[12] = Rate 125 g/ha, 0 to 100 scale (0 no effect, 100 complete control)
[13] = Rate 500 g/ha, 0 to 100 scale (0 no effect, 100 complete control)

## CCC(CC)n1c(=O)on(C(=O)N(c2ccc(F)cc2F)C(C)C)c1=O [Compound 353]
bedstraw; Rate 62 g/ha, scale 0 to 10 (0 no effect, 10 complete control)
  Plant response rating, Bedstraw: 0
bedstraw; Rate 125 g/ha
  Bedstraw plant response rating (0 to 10 scale): 0
bedstraw; Rate 500 g/ha, scale of 0 to 10 where 0 is no effect and 10 is complete control
  Bedstraw plant response rating: 3
Blackgrass [1]; [5]
  Plant response rating, Blackgrass: 4
Blackgrass [1]; [6]
  Plant response rating, Blackgrass: 2
Blackgrass [1]; [7]
  Blackgrass plant response rating: 7
Blackgrass [1]; [8]
  Blackgrass plant response rating: 8
Blackgrass [1]; [9]
  Blackgrass plant response rating: 0
Blackgrass [1]; [10]
  Plant response rating, Blackgrass: 4
Blackgrass [1]; [11]
  Plant response rating, Blackgrass: 9
Surinam grass; [5]
  Plant response rating, B. signalgrass: 0
Surinam grass; [6]
  Plant response rating, B. signalgrass: 0
Surinam grass; Preemergence, Rate 125 g/ha
  B. signalgrass plant response rating (0 to 10 scale, 0 is no effect, 10 is complete control): 2
Surinam grass; [7]
  B. signalgrass plant response rating: 5
Surinam grass; [8]
  B. signalgrass plant response rating: 5
Surinam grass; [9]
  B. signalgrass plant response rating: 0
Surinam grass; [10]
  Plant response rating, B. signalgrass: 0
Surinam grass; [11]
  Plant response rating, B. signalgrass: 0
Smallflower flatsedge; Rate 62 g/ha, flood test species, visual evaluation after twelve to sixteen days
  Plant response rating, S. Flatsedge (0 to 10 scale, 0 is no effect, 10 is complete control): 0
Smallflower flatsedge; Rate 125 g/ha, flood test species, scale 0 to 10 where 0 is no effect and 10 is complete control
  S. Flatsedge plant response rating: 2
Smallflower flatsedge; Rate 250 g/ha, flood-test species, scale 0 to 10, 0 is no effect, 10 is complete control
  S. Flatsedge plant response rating: 2
Smallflower flatsedge; Rate 500 g/ha, flood test species, scale 0 to 10 (0 no effect, 10 complete control)
  S. Flatsedge plant response rating: 7
Winter wheat [2]; Rate 125 g/ha
  Plant response rating, Wheat (winter): 20
Winter wheat [2]; Rate 250 g/ha
  Plant response rating, Wheat (winter): 30
Winter wheat [2]; Rate 500 g/ha
  Plant response rating, Wheat (winter): 40
Blackgrass [3]; [12]
  Plant response rating, Blackgrass: 10
Blackgrass [3]; Rate 250 g/ha, 0 to 100 scale
  Plant response rating, Blackgrass: 50
Blackgrass [3]; [13]
  Plant response rating, Blackgrass: 55
Green foxtail; [12]
  Plant response rating, Green foxtail: 70
Green foxtail; Rate 250 g/ha, 0 to 100 scale
  Plant response rating, Green foxtail: 100
Green foxtail; [13]
  Plant response rating, Green foxtail: 100
Italian ryegrass; [12]
  Plant response rating, I. Ryegrass: 40
Italian ryegrass; Rate 250 g/ha, 0 to 100 scale
  Plant response rating, I. Ryegrass: 90
Italian ryegrass; [13]
  Plant response rating, I. Ryegrass: 90
Winter wheat [4]; [12]
  Plant response rating, Wheat (winter): 20
Winter wheat [4]; Rate 250 g/ha, 0 to 100 scale
  Plant response rating, Wheat (winter): 40
Winter wheat [4]; [13]
  Plant response rating, Wheat (winter): 60
Wild oat; [12]
  Plant response rating, Wild oat: 30
Wild oat; Rate 250 g/ha, 0 to 100 scale
  Plant response rating, Wild oat: 55
Wild oat; [13]
  Plant response rating, Wild oat: 85
Winter barley; [12]
  Plant response rating, Barley (winter): 10
Winter barley; Rate 250 g/ha, 0 to 100 scale, 0 no effect, 100 complete control
  Plant response rating, Barley (winter): 20
Winter barley; [13]
  Plant response rating, Barley (winter): 30
